Where a name gives a salt, the structure may show the parent alone. A value given as a limit tells only on which side of the number the result lay.

This is an account of results in patent publication US10323022B2, “Pyrrolidinyl urea, pyrrolidinyl thiourea and pyrrolidinyl guanidine compounds as TrkA kinase inhibitors” (Array BioPharma Inc., priority 2011, dated 2019).

Sequence of TrkA (P04629 33-796): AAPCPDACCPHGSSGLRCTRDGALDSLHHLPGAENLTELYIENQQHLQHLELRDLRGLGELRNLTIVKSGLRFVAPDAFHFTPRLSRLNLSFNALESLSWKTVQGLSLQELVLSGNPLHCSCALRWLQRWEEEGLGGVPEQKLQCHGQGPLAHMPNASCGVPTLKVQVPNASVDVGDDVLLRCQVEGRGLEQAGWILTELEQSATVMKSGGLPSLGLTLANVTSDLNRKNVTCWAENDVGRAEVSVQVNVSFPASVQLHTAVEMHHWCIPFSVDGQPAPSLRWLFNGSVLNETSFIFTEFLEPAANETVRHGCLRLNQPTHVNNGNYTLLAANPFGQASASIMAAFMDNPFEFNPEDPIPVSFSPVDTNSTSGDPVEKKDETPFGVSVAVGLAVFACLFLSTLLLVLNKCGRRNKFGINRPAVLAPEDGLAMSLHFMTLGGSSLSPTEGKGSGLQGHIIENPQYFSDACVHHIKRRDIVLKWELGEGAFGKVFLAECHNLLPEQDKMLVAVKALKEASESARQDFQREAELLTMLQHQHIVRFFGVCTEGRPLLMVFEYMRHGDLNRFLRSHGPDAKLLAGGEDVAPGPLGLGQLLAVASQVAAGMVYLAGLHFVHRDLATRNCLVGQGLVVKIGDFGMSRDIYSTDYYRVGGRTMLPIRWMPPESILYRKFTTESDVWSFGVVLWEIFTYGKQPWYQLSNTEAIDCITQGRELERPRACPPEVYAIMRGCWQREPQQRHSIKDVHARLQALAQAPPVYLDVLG

The target in the experiment is TrkA (Homo sapiens (Human), UniProt P04629). The experiment can be described thus: TrkA Omnia Assay. Particulars: averaged IC50; 20 nM enzyme, 500 μM ATP, 10 μM peptide substrate. The class given is biochemical. In outline:
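Continuous fluorescent kinase read-out (ex 360 nm, em 485 nm) over 70 min, with initial rates fitted to 4- or 5-parameter logistic curves for IC50. Final conditions: 500 μM ATP, 10 μM Omnia Tyr Peptide #4, 20 nM TrkA, MOPS pH 7.5 buffer with MgCl2 and Triton X-100; enzyme and compound preincubated 10 min at ambient temperature.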
`COCCN1C[C@@H](NC(=O)Nc2c(Br)c(-c3ccccc3)nn2C)[C@H](c2ccc(F)c(F)c2)C1` [Example 68, 1-(4-bromo-1-methyl-3-phenyl-1H-pyrazol-5-yl)-3-((3S,4R)-4-(3,4-difluorophenyl)-1-(2-methoxyethyl)pyrrolidin-3-yl)urea] yielded an IC50 of 1000 to 10000 nM.

Consider `CCOc1nn(-c2ccccc2)c(NC(=O)N[C@@H]2CN(CCOC)C[C@H]2c2cccc(F)c2)c1C` [Example 148, 1-(3-ethoxy-4-methyl-1-phenyl-1H-pyrazol-5-yl)-3-((3S,4R)-4-(3-fluorophenyl)-1-(2-methoxyethyl)pyrrolidin-3-yl)urea], for which the half-inhibitory concentration (IC50) is below 100 nM.

`COCCN1C[C@@H](NC(=O)Nc2c(C)c(-c3cnn(C)c3)nn2-c2ccccc2)[C@H](c2ccc(F)cc2F)C1` [Example 324, 1-((3S,4R)-4-(2,4-difluorophenyl)-1-(2-methoxyethyl)pyrrolidin-3-yl)-3-(1′,4-dimethyl-1-phenyl-1H,1′H-[3,4′-bipyrazol]-5-yl)urea] showed an IC50 below 100 nM.

Molecule `COCCN1C[C@@H](NC(=O)Nc2c(Br)c(-c3cnn(C)c3)nn2-c2ccccc2)[C@H](c2ccc(F)c(F)c2)C1` [Example 420, 1-(4-bromo-1′-methyl-1-phenyl-1H,1′H-[3,4′-bipyrazol]-5-yl)-3-((3S,4R)-4-(3,4-difluorophenyl)-1-(2-methoxyethyl)pyrrolidin-3-yl)urea] yielded an IC50 below 100 nM.

Take `COCCN1C[C@@H](NC(=O)Nc2c(CO)cnn2-c2ccccc2)[C@H](c2ccc(F)c(F)c2)C1` [Example 175, 1-((3S,4R)-4-(3,4-difluorophenyl)-1-(2-methoxyethyl)pyrrolidin-3-yl)-3-(4-(hydroxymethyl)-1-phenyl-1H-pyrazol-5-yl)urea]: the IC50 was below 100 nM.

In turn, `COCCN1C[C@@H](NC(=O)Nc2c(Cl)c([C@H]3CCCN3C(=O)OC(C)(C)C)nn2-c2ccccc2)[C@H](c2ccc(F)c(F)c2)C1` [Example 572, (R)-tert-butyl 2-(4-chloro-5-(3-((3S,4R)-4-(3,4-difluorophenyl)-1-(2-methoxyethyl)pyrrolidin-3-yl)ureido)-1-phenyl-1H-pyrazol-3-yl)pyrrolidine-1-carboxylate] yielded an IC50 of 100 to 1000 nM.

`COCCN1C[C@@H](NC(=O)Nc2c(Cl)c([C@H]3CCCN3)nn2-c2ccccc2)[C@H](c2ccc(F)c(F)c2)C1` [Example 585, 1-((3S,4R)-4-(3,4-difluorophenyl)-1-(2-methoxyethyl)pyrrolidin-3-yl)-3-(4-chloro-1-phenyl-3-((R)-pyrrolidin-2-yl)-1H-pyrazol-5-yl)urea dihydrochloride] showed an IC50 below 100 nM.

Molecule `COCCN1C[C@@H](NC(=O)Nc2c(C)c([C@@H]3CCCN3)nn2-c2ccccc2)[C@H](c2cc(F)cc(F)c2)C1` [Example 586, 1-((3S,4R)-4-(3,5-difluorophenyl)-1-(2-methoxyethyl)pyrrolidin-3-yl)-3-(4-methyl-1-phenyl-3-((S)-pyrrolidin-2-yl)-1H-pyrazol-5-yl)urea dihydrochloride] returned an IC50 below 100 nM.

Regarding `COCCN1C[C@@H](NC(=O)Nc2c3c(nn2-c2ccccc2)CSC3)[C@H](c2ccccc2)C1` [Example 82, 1-((3S,4R)-1-(2-methoxy-ethyl)-4-phenylpyrrolidin-3-yl)-3-(2-phenyl-4,6-dihydro-2H-thieno[3,4-c]pyrazol-3-yl)urea], the IC50 is below 100 nM.

The molecule `COCCN1C[C@@H](NC(=O)Nc2c(C)c(-c3ccn(C)c(=O)c3)nn2-c2ccccc2)[C@H](c2ccc(F)c(F)c2)C1` [Example 505, 1-((3S,4R)-4-(3,4-difluorophenyl)-1-(2-methoxyethyl)pyrrolidin-3-yl)-3-(4-methyl-3-(1-methyl-2-oxo-1,2-dihydropyridin-4-yl)-1-phenyl-1H-pyrazol-5-yl)urea] came in with an IC50 below 100 nM.

With `CCOc1nn(-c2ccccc2)c(NC(=O)N[C@H]2CN(c3ccnn3C)C[C@@H]2c2ccccc2)c1C` [Example 229, 1-(3-ethoxy-4-methyl-1-phenyl-1H-pyrazol-5-yl)-3-((3R,4S)-1-(1-methyl-1H-pyrazol-5-yl)-4-phenylpyrrolidin-3-yl)urea], the half-maximal inhibitory concentration (IC50) was below 100 nM.

In turn, `COCCN1C[C@@H](NC(=O)Nc2c(C)c(OC[C@H](COC)O[Si](C)(C)C(C)(C)C)nn2-c2ccccc2)[C@H](c2ccc(F)c(F)c2)C1` [Example 402, 1-(3-((S)-2-(tert-butyldimethylsilyloxy)-3-methoxypropoxy)-4-methyl-1-phenyl-1H-pyrazol-5-yl)-3-((3S,4R)-4-(3,4-difluorophenyl)-1-(2-methoxyethyl)pyrrolidin-3-yl)urea_] yielded an IC50 of 100 to 1000 nM.

With `COCCN1C[C@@H](NC(=O)Nc2c3c(nn2-c2cnn(C)c2)CCC3)[C@H](c2ccccc2)C1` (relative stereo) [Example 33, 1-(trans-1-(2-methoxyethyl)-4-phenylpyrrolidin-3-yl)-3-(2-(1-methyl-1H-pyrazol-4-yl)-2,4,5,6-tetrahydrocyclo-penta[c]pyrazol-3-yl)urea], the IC50 fell in the range of 100 to 1000 nM.

`COCCN1C[C@@H](NC(=O)Nc2c(Br)c(-c3ccccc3)nn2-c2ccccc2)[C@H](c2cncc(F)c2)C1` (relative stereo) [Example 435, 1-(4-bromo-1,3-diphenyl-1H-pyrazol-5-yl)-3-(trans-4-(5-fluoropyridin-3-yl)-1-(2-methoxyethyl)pyrrolidin-3-yl)urea] gave an IC50 below 100 nM.

In the case of `COCCN1C[C@@H](NC(=O)Nc2c(C)c(-c3cn[nH]c3)nn2-c2ccccc2)[C@H](c2ccc(F)c(F)c2)C1` [Example 447], the IC50 is below 100 nM.

In turn, `COCCN1C[C@@H](NC(=O)Nc2c(C#N)c(C(F)(F)F)nn2-c2ccccc2)[C@H](c2ccc(F)c(F)c2)C1` [Example 617, 1-(4-cyano-1-phenyl-3-(trifluoromethyl)-1H-pyrazol-5-yl)-3-((3S,4R)-4-(3,4-difluorophenyl)-1-(2-methoxyethyl)pyrrolidin-3-yl)urea] displayed a concentration for half-maximal inhibition (IC50) below 100 nM.

In turn, `O=C(Nc1c2c(nn1-c1ccccc1)CCC2)N[C@@H]1CN(CC(F)(F)F)C[C@H]1c1ccc(F)cc1` (relative stereo) [Example 210, 1-((trans)-4-(4-fluorophenyl)-1-(2,2,2-trifluoroethyl)pyrrolidin-3-yl)-3-(2-phenyl-2,4,5,6-tetrahydrocyclopenta[c]pyrazol-3-yl)urea] showed an IC50 below 100 nM.

Molecule `COCCN1C[C@@H](NC(=O)Nc2cc(-c3cccc4nccn34)nn2C)[C@H](c2ccc(F)c(F)c2)C1` [Example 61, 1-((3S,4R)-4-(3,4-difluorophenyl)-1-(2-methoxyethyl)pyrrolidin-3-yl)-3-(3-(imidazo[1,2-a]pyridin-5-yl)-1-methyl-1H-pyrazol-5-yl)urea] had an IC50 below 100 nM.

On to `COCCN1C[C@@H](NC(=O)Nc2c3c(nn2-c2ccccc2)C[S+]([O-])C3)[C@H](c2ccccc2)C1` (stereo partly drawn) [Example 95, 1-((3S,4R)-1-(2-methoxy-ethyl)-4-phenylpyrrolidin-3-yl)-3-(5-oxido-2-phenyl-4,6-dihydro-2H-thieno [3,4-c]pyrazol-3-yl)urea], for which the IC50 is below 100 nM.

Regarding `COCCN1C[C@@H](NC(=O)Nc2cc(C3CC3)nn2C)[C@H](c2cc(F)cc(F)c2)C1` [Example 55, 1-(3-cyclopropyl-1-methyl-1H-pyrazol-5-yl)-3-((3S,4R)-4-(3,5-difluorophenyl)-1-(2-methoxyethyl)pyrrolidin-3-yl)urea], the IC50 lay within 100 to 1000 nM.
